One series has as its target diamine oxidase. The note with it: read-out: Ki for diamine oxidase; cited from earlier work.
The conditions of series [1]: after a therapeutic dose; cited from earlier work.
Series [2] has as its target T1, porcine kidney diamine oxidase (Sus scrofa, UniProt Q9TRC7).
T1 sequence (Q9TRC7 25-755): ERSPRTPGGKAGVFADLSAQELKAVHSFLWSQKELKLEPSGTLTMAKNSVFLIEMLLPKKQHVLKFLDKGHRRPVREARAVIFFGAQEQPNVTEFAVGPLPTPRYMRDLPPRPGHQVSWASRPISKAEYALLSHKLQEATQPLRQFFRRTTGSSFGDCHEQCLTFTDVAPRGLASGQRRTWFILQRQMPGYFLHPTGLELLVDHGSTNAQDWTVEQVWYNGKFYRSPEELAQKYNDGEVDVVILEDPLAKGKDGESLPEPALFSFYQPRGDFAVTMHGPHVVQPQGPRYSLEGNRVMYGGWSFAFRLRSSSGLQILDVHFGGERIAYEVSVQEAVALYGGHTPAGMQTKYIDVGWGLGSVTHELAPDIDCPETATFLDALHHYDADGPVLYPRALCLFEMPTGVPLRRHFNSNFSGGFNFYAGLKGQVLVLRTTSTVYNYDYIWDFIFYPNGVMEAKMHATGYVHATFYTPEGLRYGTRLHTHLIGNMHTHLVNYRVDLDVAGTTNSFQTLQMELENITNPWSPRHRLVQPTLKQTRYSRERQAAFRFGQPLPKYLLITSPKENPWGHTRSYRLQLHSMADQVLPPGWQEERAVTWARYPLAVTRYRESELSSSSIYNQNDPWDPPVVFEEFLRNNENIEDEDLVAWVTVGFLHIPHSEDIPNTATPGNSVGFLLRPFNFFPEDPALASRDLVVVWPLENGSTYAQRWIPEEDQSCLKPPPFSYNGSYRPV
Kind of series: Diamine oxidase spectrophotometric assay with putrescine as substrate. The series is classed as biochemical.

The subject of the next series is porcine diamine oxidase. The settings on record: read-out: reported KM of putrescine; cited from earlier work.
Substrate in series [3]: NCCCCN
Kind of series: purified protein, by the assay type. The settings on record: other: porcine DAO; pH 7.0; 37.0 °C.

As usually defined, the Ki is a dissociation constant, usually derived from enzyme kinetics or from competition with a known ligand. As for `[H]/N=C(/N)N/C(=N/[H])NCCc1ccccc1` [phenformin], the inhibition constant (Ki) on diamine oxidase was 4 mM.

`CN(C)C(=N)N=C(N)N` [metformin, Metformin]: the “predicted concentration in the intestinal lumen” value in series [1] was 10 to 20 mM. Besides, the affinity in series [2] corresponds to a Ki of 8.6 ± 3.1 mM. The “type of DAO inhibition” value in series [2] (porcine DAO) is “mixed-type inhibition”.

In general, Km refers to the substrate concentration at which the rate is half of its maximum. Regarding `NCCCCN` [putrescine], the Km in the series on porcine diamine oxidase is 350 µM.

`N=C(N)NN` [aminoguanidine]: in series [2] (inhibitor 100 μM, putrescine 100 μM as substrate), the “% inhibition of porcine DAO” value is “greater than 80%”.

B1: porcine kidney diamine oxidase (Sus scrofa) (protein)
chain: ERSPRTPGGKAGVFADLSAQELKAVHSFLWSQKELKLEPSGTLTMAKNSVFLIEMLLPKKQHVLKFLDKGHRRPVREARAVIFFGAQEQPNVTEFAVGPLPTPRYMRDLPPRPGHQVSWASRPISKAEYALLSHKLQEATQPLRQFFRRTTGSSFGDCHEQCLTFTDVAPRGLASGQRRTWFILQRQMPGYFLHPTGLELLVDHGSTNAQDWTVEQVWYNGKFYRSPEELAQKYNDGEVDVVILEDPLAKGKDGESLPEPALFSFYQPRGDFAVTMHGPHVVQPQGPRYSLEGNRVMYGGWSFAFRLRSSSGLQILDVHFGGERIAYEVSVQEAVALYGGHTPAGMQTKYIDVGWGLGSVTHELAPDIDCPETATFLDALHHYDADGPVLYPRALCLFEMPTGVPLRRHFNSNFSGGFNFYAGLKGQVLVLRTTSTVYNYDYIWDFIFYPNGVMEAKMHATGYVHATFYTPEGLRYGTRLHTHLIGNMHTHLVNYRVDLDVAGTTNSFQTLQMELENITNPWSPRHRLVQPTLKQTRYSRERQAAFRFGQPLPKYLLITSPKENPWGHTRSYRLQLHSMADQVLPPGWQEERAVTWARYPLAVTRYRESELSSSSIYNQNDPWDPPVVFEEFLRNNENIEDEDLVAWVTVGFLHIPHSEDIPNTATPGNSVGFLLRPFNFFPEDPALASRDLVVVWPLENGSTYAQRWIPEEDQSCLKPPPFSYNGSYRPV
For B1, in series [3], the Km was 330 ± 160 µM.
